Here are results for one substance from publication PMC10318527, “Utilization of dietary mixed-linkage β-glucans by the Firmicute Blautia producta” (The Journal of Biological Chemistry, 2023).

Experiment [1] has as its system BPGH16 mutant H398A. The experiment is described as follows: Kinetics of BPGH16 mutant H398A (DNS assay). The format is biochemical, Blautia producta ATCC 27340. Here is the method: The residues R331, L358, E379, D381, E384, W362, and H398 of BpGH16MLG were mutated to Ala by the Q5Site-Directed Mutagenesis Kit (New England Biolabs, UK, catalogue no. E0554S). Wild-type plasmid BpGH16-pET28a(+) was used as a template, and mutagenic forward and reverse primers were developed using NEBaseChanger with subtle modifications (Table S4). A 25 μl PCR cocktail was prepared for mutating each residue. The final concentration of Q5 Hot Start High-Fidelity 2X Master Mix was 1X, each primer was at 0.5 μM, the amount of used template was 20 ng, and the rest of the volume was made up of nuclease-free water. PCR was executed using the following conditions-initial denaturation was performed at 98 °C for 1 min, for each cycle-denaturation, annealing, and extension (72 °C) were set for 10 s, 20 s, and 7 min, respectively. […] The mutant protein was then expressed as per the protocol mentioned earlier, and kinetics were performed with barley β-glucan.
Reactions were performed in 100 μl volume mixture using recombinant enzyme (final concentration at 0.1 mg/ml) in 50 mM sodium phosphate buffer (pH 5.7) at 37 °C for 1 h of incubation. […] Enzymatic assays were determined with 3,5- dinitrosalicylic acid (DNS) assay ([85]). […] Consequently, recorded the developed color spectrophotometrically at 575 nm ([85]). […]

For experiment [2], the target named is T1, BpGH94MLG (Blautia producta, UniProt A0A7G5MNS2).
T1 sequence (A0A7G5MNS2 1-804): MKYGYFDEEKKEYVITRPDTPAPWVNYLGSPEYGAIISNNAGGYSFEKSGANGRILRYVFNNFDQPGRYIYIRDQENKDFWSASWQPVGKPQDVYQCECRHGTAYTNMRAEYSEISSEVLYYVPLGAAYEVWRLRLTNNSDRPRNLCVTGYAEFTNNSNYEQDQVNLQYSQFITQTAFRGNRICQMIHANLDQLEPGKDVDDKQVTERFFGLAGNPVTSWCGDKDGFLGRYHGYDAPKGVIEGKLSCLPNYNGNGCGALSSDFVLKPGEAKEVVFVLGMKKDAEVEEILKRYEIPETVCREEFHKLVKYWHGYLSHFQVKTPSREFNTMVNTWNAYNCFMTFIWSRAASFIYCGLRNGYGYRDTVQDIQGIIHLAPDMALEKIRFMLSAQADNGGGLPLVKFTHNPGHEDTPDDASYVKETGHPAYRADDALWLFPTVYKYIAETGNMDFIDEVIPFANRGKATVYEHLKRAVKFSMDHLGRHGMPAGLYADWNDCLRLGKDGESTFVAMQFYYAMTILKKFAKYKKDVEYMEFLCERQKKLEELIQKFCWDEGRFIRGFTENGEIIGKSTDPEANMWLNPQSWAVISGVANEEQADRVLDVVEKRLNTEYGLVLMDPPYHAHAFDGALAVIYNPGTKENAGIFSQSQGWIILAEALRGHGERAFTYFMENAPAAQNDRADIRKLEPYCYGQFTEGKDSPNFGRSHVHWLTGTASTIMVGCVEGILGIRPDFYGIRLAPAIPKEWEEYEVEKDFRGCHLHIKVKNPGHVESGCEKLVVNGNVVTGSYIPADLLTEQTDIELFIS
Briefly: Phosphorolysis activity of BpGH94MLG on substrates (TLC). It is filed as biochemical, Blautia producta ATCC 27340. The settings on record: inorganic phosphate, 37 °C. Here is the method: TLC was used for analyzing enzymatic actions. […] Kinetics parameters for BpGH94MLG were determined with G4G3G, G4G4G3G and cellotriose, following a p-hydroxybenzoic acid hydrazide (PAHBAH) reducing sugar assay ([69]).

The test system of experiment [3] is BoGH16MLG. On the set-up: method as in PMID 29141231. The settings on record: BoGH16MLG with barley MLG, no unit, cited from earlier work.

As to Barley β-glucan, the kcat in experiment [1] was 0 s⁻¹; in experiment [3] (in 1/s) it was 85.8 ± 4.6. Moreover, the “phosphorolysis activity of BpGH94MLG (in words)” value in experiment [2] is “catalyzed phosphorolysis”. The Km in experiment [3] (in mg/mL) is 0.364 ± 0.051.
